Assay results taken from patent US7608415B2, “Analysis of intracellular modifications” (Discoverx Corporation, priority 2004, dated 2009).

Tested on: IκB-PL
Experiment: Homogenous EFC assay of lysates of HeLa/IκB-PL stable cell line stimulated with TNF-α
Assay type: cell-based
Conditions: increasing time periods
Source text: The second experimental example illustrates the sensitivity of the EAstern blot method by following the regulated degradation of a PL-tagged cellular protein, IκB-PL. […] Stimulation of cells with cytokines, such as TNF-α, activates a pathway that leads to phosphorylation, ubiquitination, and subsequent degradation of IκB, which in turn leads to the release and activation of NF-κB. The regulated degradation of IκB is thus an indicator for NF-κB pathway activation.
Cell lysate samples for EAstern blot analysis were prepared from a HeLa/IκB-PL stable cell line (WO 03/021265, filed Aug. 27, 2002) that was cultured and stimulated with TNF-α for increasing time periods. […] Another fraction of each was used for gel electrophoresis and transfer to PVDF blots as described above. To detect IκB-PL, the EAstern blot protocol was adapted for use with the chemiluminescent substrate Beta-Glo (Promega Corp., Cat. No. E4720). In particular, after incubating with EA Reagent, the blot was incubated at RT for 10 min in a solution of Beta-Glo:EACB (1:1, v/v), sandwiched between clear plastic sheets, and then its luminescence detected with a CCD camera.

TNF-α
IκB-PL EFC signal after TNF-α stimulation: time-dependent degradation of IκB-PL signal
